Source: PubChem BioAssay (NCI)
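GI50 marks 50% less growth. At the TGI there is no net growth.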

Tests used:
Assay in all cases: DTP human tumour cell line panel, 384-well format
[1] = test system: SK-MEL-28 melanoma
[2] = test system: HL-60(TB) leukemia
[3] = test system: T-47D breast
[4] = test system: A549 NSCLC
[5] = test system: MDA-MB-435 melanoma
[6] = test system: KM12 colon
[7] = test system: RPMI-8226 leukemia
[8] = test system: 786-0 renal
[9] = test system: SK-MEL-2 melanoma
[10] = test system: A498 renal
[11] = test system: HS 578T breast
[12] = test system: DU-145 prostate
[13] = test system: SNB-19 CNS

`C[C@@H](Oc1cc(-c2cnn(C3CCNCC3)c2)cnc1N)c1c(Cl)cc(F)cc1Cl` showed a GI50 [1] of 1600 nM, a TGI [1] of 3090 nM and a GI50 [2] of 256 nM. The TGI [2] was 485 nM, the GI50 [3] was 2190 nM and the TGI [3] was 6110 nM. For the same compound, the GI50 [4] was 860 nM, the TGI [4] was 4420 nM and the GI50 [5] was 2570 nM. The TGI [5] was 6790 nM, the GI50 [6] was 43.1 nM and the TGI [6] was 2270 nM. The GI50 [7] was 1160 nM, the TGI [7] was 2970 nM and the GI50 [8] was 1480 nM. For the same compound, the TGI [8] was 2960 nM, the GI50 [9] was 1450 nM and the TGI [9] was 2760 nM. The GI50 [10] was 1650 nM, the TGI [10] was 3840 nM and the GI50 [11] was 1480 nM. It also gave a TGI [11] of 3710 nM, a GI50 [12] of 2090 nM and a TGI [12] of 6250 nM. The GI50 [13] was 3870 nM and the TGI [13] was 8610 nM.
